Assay results: the NIST ThermoML archive (doi:10.1016/j.fluid.2009.01.012)
± gives the expanded uncertainty stated by the source.

Settings: DTA

## CC(C)C[P+](C)(CC(C)C)CC(C)C.Cc1ccc(S(=O)(=O)[O-])cc1 [triisobutylmethylphosphonium p-toluenesulfonate]
  Glass transition temperature: -47.6 ± 5 °C
